In paper PMC12040169 (PLOS Biology, 2025):

Assay: in vitro
Details: human, hela cells, % viability

| Compound | viability at 28.5 h, 10 µM [%] | viability at 28.5 h, 10 µM (bulk resorufin, single well) [%] |
| --- | --- | --- |
| O=C(O)c1ccc(NS(=O)(=O)c2cc(Br)c(Cl)s2)cc1 [CBK034049] | 95.8 |  |
| COCc1ccc(C(=O)N2CCCC(c3cc4ncccc4[nH]3)C2)o1 (centres unmarked) [CBK282106] | 87 |  |
| Cc1nc([N+](=O)[O-])c(C(=O)OCc2ccccc2C#N)n1C [CBK293991] | 82.1 |  |
| CC1(c2ccccc2)NC(NC2CCCCC2)=NC1=O (centres unmarked) [CBK008081] | 97.3 |  |
| CC(C)Oc1ccc(C(=O)C2=C(O)C(=O)N(Cc3cccnc3)C2c2ccncc2)cc1 (centres unmarked) [CBK264920] | 90 |  |
| CCCc1n[nH]c(=S)n1CC(=O)Nc1cccc(-n2ncc(C(=O)OCC)c2C)c1 [CBK297746] | 90.2 |  |
| O=C(NC1CCCOC1)c1cc(-c2ccc(F)cc2)no1 (centres unmarked) [CBK283141] | 107 |  |
| Nc1cccnc1OCCN1CCN(CC(=O)N2CCCCc3ccccc32)CC1 [CBK007764] | 95.1 |  |
| CS(=O)(=O)N(Cc1ccc(Cl)cc1)c1ccc(C(=O)N2CCC(C(N)=O)CC2)cc1 [CBK265327] | 89.7 |  |
| CCNCCOc1c(C)cc(C)cc1C [CBK270137C] | 108 |  |
| Cc1cc(-c2ccccc2)sc1C(=O)/C=C(\O)C(=O)O [CBK263198] | 100 |  |
| Cc1cc(C)c2c(n1)OC(N1CCOCC1)(C(F)(F)F)CC2=O (centres unmarked) [CBK267301] | 79.2 |  |
| NC(=O)c1c(NC(=O)c2cnn3cccnc23)sc2c1CCCC2 [CBK268437] | 87.8 |  |
| CCC(=O)N1CCCC1c1nc(C)c2c(n1)N(CCc1ccccc1OC)CCC2 (centres unmarked) [CBK286246] | 95.4 |  |
| O=C(NCCc1ccccc1)C1CCN(C(=O)c2cccc(F)c2)CC1 [CBK307583] | 82.2 |  |
| COc1ccc([C@@]23CC[C@@H](NC(=O)Nc4ccc(F)c(F)c4)C[C@@H]2N(C)CC3)cc1O [CBK051630] | 88.3 |  |
| COc1ccc2[nH]cc(CCNC(=O)c3ccc4[nH]c(=O)[nH]c4c3)c2c1 [CBK122721] | 93.4 |  |
| CC(C)(C)C(=O)CSc1nnc(-c2ccccc2)n1Cc1ccccc1 [CBK264960] | 108 |  |
| O=C(O)c1ccc(S(=O)(=O)NCC2CCCO2)cc1 (centres unmarked) [CBK262364] | 79.8 |  |
| O=C(Cc1c[nH]c2ccccc12)N1CCCC1c1ccc(F)cc1 (centres unmarked) [CBK297927] | 105 |  |
| CC(C)COc1ccccc1C(=O)NCCC(=O)O [CBK033507] | 102 |  |
| Cc1cc(C)nc(SCC(=O)N2c3ccccc3C(C)(c3ccc(Cl)cc3)CC2(C)C)n1 (centres unmarked) [CBK073872] | 110 |  |
| O=C(O)CCc1ccc(-c2cccs2)n1-c1ccc(C(=O)O)cc1 [CBK266016] | 90.9 |  |
| COC(=O)Nc1cc2sccc2nc1C(F)(F)F [CBK019229] | 80 |  |
| COCCNC(=O)c1ccc(-c2cc(C)cs2)nc1NCC1CC1 [CBK106259] | 106 |  |
| CC(=O)Nc1ccc(NC(=O)CSC2=C(C#N)C(c3ccco3)C3=C(CCCC3=O)N2)cc1 (centres unmarked) [CBK264462] | 91.8 |  |
| O=CN1CCc2c([nH]c3ccccc23)C12CCN(CCCN1C(=O)C3CCCCC3C1=O)C2 (centres unmarked) [CBK039592] | 114 |  |

| Compound | viability at 28.5 h, 10 µM [%] | viability at 28.5 h, 10 µM (bulk resorufin, single well) [%] |
| --- | --- | --- |
| COc1ccc(-c2ccc3c(c2)COC2(CCNCC2)O3)cn1 [CBK060913] |  | 81 |
| O=c1c2[nH]c3ccccc3c2ncn1Cc1ccccc1 [CBK287809] | 103 |  |
| COc1cccc(-c2cnc(N)c(N3CCN(CCN(C)C)CC3)n2)c1 [CBK063561] | 108 |  |
| CC(=O)NC[C@H]1CN(c2ccc(C3=CC[S+]([O-])CC3)c(F)c2)C(=O)O1 (some centres unmarked) [CBK017555] | 92.5 |  |
| N#Cc1ccc(NC(=O)c2ccc(-n3cnnc3)cc2Cl)cc1 [CBK269758] | 87.2 |  |
| CC(C)Oc1ncccc1OCCO [CBK001465] | 112 |  |
| Cc1ccc(S(=O)(=O)Nc2ccccc2CNc2ccccn2)cc1 [CBK264198] | 91.9 |  |
| O=C(Cc1cccc2ccccc12)Nc1ccc2oc(-c3ccccc3)nc2c1 [CBK266286] | 96.3 |  |
| COc1ccc(N2C(=O)NC(=O)/C(=C/c3cn(CC(=O)Nc4ccccc4)c4ccccc34)C2=O)cc1 [CBK263547] |  | 110 |
| CCCCCn1c(O)nnc1SCc1csc(CS(=O)(=O)c2ccc(Cl)cc2)n1 [CBK007176] | 80.7 |  |
| CCCC(=O)NCC(C)c1nsc(NS(=O)(=O)c2cccc(Cl)c2C)n1 (centres unmarked) [CBK200053] | 96 |  |
| O=C(NCc1ccccc1)c1c(O)c2ccccc2n(Cc2ccccc2)c1=O [CBK291174] | 91.6 |  |
| O=C(Cc1nnn[nH]1)N1CCCC2(CCN(C(=O)c3ccoc3)C2)C1 (centres unmarked) [CBK137077] | 91.8 |  |
| COC(=O)c1c(NC(=S)Nc2ccn(C)n2)sc2c1CCCCC2 [CBK266888] | 106 |  |
| O=C(O)C1(NS(=O)(=O)c2ccc(Cl)cc2)CCCCC1 [CBK028566] | 111 |  |
| CSCCC(NC(=O)c1ccc(S(=O)(=O)N2CC(C)OC(C)C2)cc1)C(=O)O (centres unmarked) [CBK297101] | 104 |  |
| O=C(CSc1nc2ccccc2s1)c1cccc([N+](=O)[O-])c1 [CBK262130] | 88.2 |  |
| CC1=C[C@@H](CNC(=O)c2ccccn2)[C@H](C(C)C)C[C@H]1CC(=O)N1CCCC1 [CBK289207] | 86.5 |  |
| Nc1cc2ccccc2c(-c2cccc(C(F)(F)F)c2)n1 [CBK085721] | 101 |  |
| CCc1[nH]nc2c1C(C1C=CCCC1)C(C#N)=C(N)O2 (centres unmarked) [CBK270236] | 92.9 |  |
| CCCc1n[nH]c(-c2ccc(Cl)cc2Cl)c1C(=O)OCC [CBK113548] | 107 |  |
| CN(C)S(=O)(=O)NCCc1ccc(S(N)(=O)=O)cc1 [CBK022388] | 99.5 |  |
| CC1CN(C)C(C)CC1OC(=O)C(c1ccccc1)c1ccccc1 (centres unmarked) [CBK087393] | 105 |  |
| Clc1cncc(OCCCCOc2ccccc2)n1 [CBK176018] | 108 |  |
| COc1ccc(CNC(=O)CSc2cnn[nH]2)cc1 [CBK269881] | 85.6 |  |
| N#CCc1c(-c2ccc(Br)cc2)nc2ccccn12 [CBK172896] | 100 |  |
| CC1CN(CCNCc2cn(C)nc2-c2cccnc2)CC(C)O1 (centres unmarked) [CBK305151] | 110 |  |

| Compound | viability at 28.5 h, 10 µM [%] | viability at 28.5 h, 10 µM (bulk resorufin, single well) [%] |
| --- | --- | --- |
| CC1CC(C)CN(C(=O)c2ccccc2NC(=O)C2CC(=O)Nc3ccccc32)C1 (centres unmarked) [CBK297760] | 81.8 |  |
| COc1cncc(-c2cncc(Nc3ccccc3)n2)c1 [CBK065435] | 113 |  |
| CCOc1ccc(CN2CCNC(=O)C2CC(=O)O)cc1 (centres unmarked) [CBK269242] | 107 |  |
| O=C(Cn1ccc2ccnc(-c3cccs3)c21)N1CCC(O)CC1 [CBK284736] | 93.1 |  |
| CC(=O)NCCN1CC[C@H]2CN(C(=O)COc3ccccc3)CC[C@H]2CC1=O [CBK288783] | 84.6 |  |
| O=C(O)CC1S/C(=N/N=C/c2ccco2)NC1=O (centres unmarked) [CBK261371] | 93.7 |  |
| Cc1ccc(OCc2nnc(SCC(=O)c3ccc(Br)cc3)n2N)cc1 [CBK266482] | 99.5 |  |
| CCc1nnc(SCc2cccc(C(=O)O)c2)o1 [CBK286993] | 95.7 |  |
| CC(=O)N1CCN(c2ccc(NC(=O)C3C(C(=O)O)C3(C)C)cc2)CC1 (centres unmarked) [CBK300545] | 88.6 |  |
| C=CCn1c2ccccc2c2nnc(SCc3ccc([N+](=O)[O-])cc3)nc21 [CBK265630] | 92.5 |  |
| C=CCOc1ccc(C(=O)C2=C(O)C(=O)N(Cc3cccnc3)C2c2ccc(Cl)cc2)c(C)c1 (centres unmarked) [CBK264716] | 99.6 |  |
| O=C(NC(/C=C/c1ccccc1)c1cc([N+](=O)[O-])c2cccnc2c1O)C1CCCCC1 (centres unmarked) [CBK265333] | 93 |  |
| O=C(O)C1CC=CCC1C(=O)NCc1ccc2c(c1)OCO2 (centres unmarked) [CBK264209] | 96.4 |  |
| CCc1cc(Br)ccc1S(=O)(=O)NC1CCOC1=O (centres unmarked) [CBK044385] | 97.5 |  |
| CCc1cc(=O)[nH]c(-c2ccc(N(C)CC(C)O)nc2)n1 (centres unmarked) [CBK306484] | 88.4 |  |
| Cn1cncc1C(=O)NC1Cc2ccccc2C1 [CBK200362] | 107 |  |
| COCCNC(=O)c1cc(-c2ccccc2)cnc1N(C)S(C)(=O)=O [CBK076484] | 85.8 |  |
| CS(=O)(=O)N(CC(=O)Nc1ccc(C(F)(F)F)cc1)Cc1ccc(Cl)cc1 [CBK268915] | 99.7 |  |
| COc1ccc(-c2ncc(OCC3CCCN3C)nc2N)c(OC)c1 (centres unmarked) [CBK145091] | 88.9 |  |
| Cc1cc(NC(=O)C(=O)NC(C)c2ccccc2)ccc1Br (centres unmarked) [CBK267084] | 96.3 |  |
| COc1cc(C2SCC(=O)Nc3c2c(-c2ccccc2)nn3-c2ccccc2)cc(OC)c1OC (centres unmarked) [CBK265025] | 108 |  |
| CCNC(=O)Nc1ncc(-c2ccc3c(c2)OCCCO3)c2cccnc12 [CBK070634] | 104 |  |
| CC(C)(C)c1cc(C(=O)NCCN)n(Cc2ccc(Cl)cc2Cl)n1 [CBK116631T] | 95.1 |  |
| CCN1CCN(c2nc(N)c3ccccc3n2)CC1 [CBK268561C] | 82.4 |  |
| Cc1ccc2nc(CSc3ncnc4sc(C)cc34)[nH]c2c1 [CBK270047] | 97.1 |  |
| Cc1nnc(SCC(=O)Nc2nsc(-c3ccc(Cl)cc3)n2)s1 [CBK266525] | 91.5 |  |
